Paper PMC4718143, “A novel protocol for the one-pot borylation/Suzuki reaction provides easy access to hinge-binding groups for kinase inhibitors” (Organic & Biomolecular Chemistry, 2015)
Read-outs that look alike come from different tables or passages of the source.

Experiments:
Assay type in all cases: biochemical
RSK1 = target: T1, RSK1 (Homo sapiens, UniProt Q15418); experiment: ProfilerPro kinase panel, single concentration […]
T1 construct: gene RPS6KA1

CHK2 = target: T2, CHK2 (Homo sapiens, UniProt O96017); experiment: ProfilerPro kinase panel, single concentration […]
T2 construct: gene CHEK2

AurA = target: T3, AurA (Homo sapiens, UniProt O14965); experiment: ProfilerPro kinase panel, single concentration […]
T3 construct: gene AURKA
T3 sequence (O14965 1-403): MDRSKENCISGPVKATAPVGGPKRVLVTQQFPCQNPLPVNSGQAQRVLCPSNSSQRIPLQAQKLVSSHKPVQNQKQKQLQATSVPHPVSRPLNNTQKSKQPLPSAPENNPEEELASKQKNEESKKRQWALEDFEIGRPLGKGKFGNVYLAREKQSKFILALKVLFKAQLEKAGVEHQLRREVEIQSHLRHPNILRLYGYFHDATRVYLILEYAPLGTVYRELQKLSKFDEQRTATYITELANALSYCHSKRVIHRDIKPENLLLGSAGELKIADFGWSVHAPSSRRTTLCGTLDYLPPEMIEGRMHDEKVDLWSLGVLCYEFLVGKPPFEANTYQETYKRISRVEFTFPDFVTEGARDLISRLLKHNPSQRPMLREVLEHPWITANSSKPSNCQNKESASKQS

INSR = INSR (Homo sapiens, UniProt P06213); experiment: ProfilerPro kinase panel, single concentration […]
PKD2 = target: T4, PKD2 (Homo sapiens, UniProt Q9BZL6); experiment: ProfilerPro kinase panel, single concentration […]
T4 construct: gene PRKD2
T4 sequence (Q9BZL6 1-878): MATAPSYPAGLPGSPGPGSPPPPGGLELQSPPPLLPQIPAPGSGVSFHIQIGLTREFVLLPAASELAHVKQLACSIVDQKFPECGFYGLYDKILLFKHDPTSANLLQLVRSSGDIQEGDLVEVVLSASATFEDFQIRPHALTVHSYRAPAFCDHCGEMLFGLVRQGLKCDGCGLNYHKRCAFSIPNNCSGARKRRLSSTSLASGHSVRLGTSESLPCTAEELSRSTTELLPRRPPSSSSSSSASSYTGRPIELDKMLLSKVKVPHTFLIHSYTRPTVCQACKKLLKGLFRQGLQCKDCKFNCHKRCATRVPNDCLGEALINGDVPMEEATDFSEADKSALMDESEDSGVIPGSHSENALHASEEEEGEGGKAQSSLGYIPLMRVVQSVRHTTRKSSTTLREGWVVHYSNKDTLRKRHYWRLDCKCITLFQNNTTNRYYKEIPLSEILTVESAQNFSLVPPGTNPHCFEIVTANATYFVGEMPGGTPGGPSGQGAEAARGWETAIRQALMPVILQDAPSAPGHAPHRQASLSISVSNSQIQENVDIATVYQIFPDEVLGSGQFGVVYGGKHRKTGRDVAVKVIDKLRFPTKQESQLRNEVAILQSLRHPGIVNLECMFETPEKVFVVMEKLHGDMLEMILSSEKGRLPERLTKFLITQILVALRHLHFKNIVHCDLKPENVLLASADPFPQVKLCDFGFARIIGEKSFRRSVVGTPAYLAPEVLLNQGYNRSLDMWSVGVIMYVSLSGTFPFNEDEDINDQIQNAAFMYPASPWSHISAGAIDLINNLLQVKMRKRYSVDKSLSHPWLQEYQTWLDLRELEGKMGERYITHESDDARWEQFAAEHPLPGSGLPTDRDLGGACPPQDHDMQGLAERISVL

ABL [1] = target: T5, ABL (Homo sapiens, UniProt P00519); experiment: kinase inhibition IC50 (Invitrogen), following ProfilerPro kinase panel ([…] at […])
T5 construct: gene ABL1

ABL [2] = target: T5, ABL; experiment: as above; remark: listed apart in the source

T5 sequence (P00519 whole entry): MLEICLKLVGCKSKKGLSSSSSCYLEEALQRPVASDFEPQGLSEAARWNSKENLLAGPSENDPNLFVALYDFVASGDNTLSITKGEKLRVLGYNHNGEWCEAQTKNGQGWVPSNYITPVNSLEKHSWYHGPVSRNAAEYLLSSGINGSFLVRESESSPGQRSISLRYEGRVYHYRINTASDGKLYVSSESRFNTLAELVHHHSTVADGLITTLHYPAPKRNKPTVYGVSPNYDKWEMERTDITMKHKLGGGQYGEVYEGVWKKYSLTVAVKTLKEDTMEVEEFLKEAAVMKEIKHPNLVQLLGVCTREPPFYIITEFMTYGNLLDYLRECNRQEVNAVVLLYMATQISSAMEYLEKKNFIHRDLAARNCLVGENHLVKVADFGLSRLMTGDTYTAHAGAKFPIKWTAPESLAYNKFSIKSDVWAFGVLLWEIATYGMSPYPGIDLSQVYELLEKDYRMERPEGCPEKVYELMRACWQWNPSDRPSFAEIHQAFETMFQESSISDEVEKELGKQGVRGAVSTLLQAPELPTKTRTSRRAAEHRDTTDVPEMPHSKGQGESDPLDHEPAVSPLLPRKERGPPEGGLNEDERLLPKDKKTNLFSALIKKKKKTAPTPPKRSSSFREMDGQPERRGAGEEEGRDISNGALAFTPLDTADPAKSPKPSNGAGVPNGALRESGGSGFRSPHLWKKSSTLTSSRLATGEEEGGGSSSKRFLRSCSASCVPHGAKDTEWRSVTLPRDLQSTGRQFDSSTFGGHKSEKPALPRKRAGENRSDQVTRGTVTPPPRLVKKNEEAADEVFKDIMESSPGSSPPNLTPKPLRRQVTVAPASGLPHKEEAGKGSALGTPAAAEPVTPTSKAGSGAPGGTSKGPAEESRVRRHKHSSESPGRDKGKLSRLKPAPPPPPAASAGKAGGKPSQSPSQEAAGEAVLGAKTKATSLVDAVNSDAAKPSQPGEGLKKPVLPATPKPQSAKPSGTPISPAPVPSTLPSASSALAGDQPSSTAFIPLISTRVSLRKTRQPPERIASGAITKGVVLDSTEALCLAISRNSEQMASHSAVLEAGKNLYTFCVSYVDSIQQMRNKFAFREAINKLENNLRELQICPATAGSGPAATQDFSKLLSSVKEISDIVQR
Sequence of INSR (P06213 28-758): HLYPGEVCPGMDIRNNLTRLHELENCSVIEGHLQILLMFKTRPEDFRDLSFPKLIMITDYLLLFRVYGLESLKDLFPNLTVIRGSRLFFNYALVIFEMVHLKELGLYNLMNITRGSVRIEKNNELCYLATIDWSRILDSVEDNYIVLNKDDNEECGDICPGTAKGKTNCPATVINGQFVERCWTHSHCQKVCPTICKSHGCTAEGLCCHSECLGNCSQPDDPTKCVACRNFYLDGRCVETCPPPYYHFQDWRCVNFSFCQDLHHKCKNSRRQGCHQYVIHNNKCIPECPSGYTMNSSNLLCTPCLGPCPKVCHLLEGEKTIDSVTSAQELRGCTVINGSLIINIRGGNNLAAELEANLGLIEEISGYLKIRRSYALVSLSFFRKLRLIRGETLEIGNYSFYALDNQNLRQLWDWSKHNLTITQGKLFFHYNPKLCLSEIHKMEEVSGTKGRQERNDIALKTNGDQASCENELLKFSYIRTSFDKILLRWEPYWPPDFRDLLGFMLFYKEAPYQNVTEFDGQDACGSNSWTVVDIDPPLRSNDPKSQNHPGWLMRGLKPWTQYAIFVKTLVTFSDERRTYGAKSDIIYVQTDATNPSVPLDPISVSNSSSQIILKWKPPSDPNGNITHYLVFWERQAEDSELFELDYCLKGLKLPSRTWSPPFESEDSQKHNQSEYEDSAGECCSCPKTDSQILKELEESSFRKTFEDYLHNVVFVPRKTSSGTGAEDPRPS
Sequence of INSR (P06213 763-1382): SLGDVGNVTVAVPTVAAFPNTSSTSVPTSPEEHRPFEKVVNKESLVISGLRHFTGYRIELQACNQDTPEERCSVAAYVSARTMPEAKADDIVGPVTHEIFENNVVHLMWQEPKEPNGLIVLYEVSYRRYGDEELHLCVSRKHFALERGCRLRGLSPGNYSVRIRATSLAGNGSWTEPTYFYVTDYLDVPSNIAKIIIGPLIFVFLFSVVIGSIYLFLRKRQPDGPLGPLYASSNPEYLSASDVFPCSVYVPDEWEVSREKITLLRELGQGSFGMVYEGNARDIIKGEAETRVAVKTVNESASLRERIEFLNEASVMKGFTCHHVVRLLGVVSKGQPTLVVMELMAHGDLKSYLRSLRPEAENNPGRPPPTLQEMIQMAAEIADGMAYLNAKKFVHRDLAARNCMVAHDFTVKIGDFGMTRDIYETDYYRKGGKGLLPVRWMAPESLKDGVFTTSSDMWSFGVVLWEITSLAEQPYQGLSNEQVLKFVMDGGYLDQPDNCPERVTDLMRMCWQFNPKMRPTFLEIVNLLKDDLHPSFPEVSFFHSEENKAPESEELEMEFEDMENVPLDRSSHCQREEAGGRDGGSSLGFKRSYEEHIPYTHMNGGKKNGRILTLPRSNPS
T1 sequence (Q15418 whole entry): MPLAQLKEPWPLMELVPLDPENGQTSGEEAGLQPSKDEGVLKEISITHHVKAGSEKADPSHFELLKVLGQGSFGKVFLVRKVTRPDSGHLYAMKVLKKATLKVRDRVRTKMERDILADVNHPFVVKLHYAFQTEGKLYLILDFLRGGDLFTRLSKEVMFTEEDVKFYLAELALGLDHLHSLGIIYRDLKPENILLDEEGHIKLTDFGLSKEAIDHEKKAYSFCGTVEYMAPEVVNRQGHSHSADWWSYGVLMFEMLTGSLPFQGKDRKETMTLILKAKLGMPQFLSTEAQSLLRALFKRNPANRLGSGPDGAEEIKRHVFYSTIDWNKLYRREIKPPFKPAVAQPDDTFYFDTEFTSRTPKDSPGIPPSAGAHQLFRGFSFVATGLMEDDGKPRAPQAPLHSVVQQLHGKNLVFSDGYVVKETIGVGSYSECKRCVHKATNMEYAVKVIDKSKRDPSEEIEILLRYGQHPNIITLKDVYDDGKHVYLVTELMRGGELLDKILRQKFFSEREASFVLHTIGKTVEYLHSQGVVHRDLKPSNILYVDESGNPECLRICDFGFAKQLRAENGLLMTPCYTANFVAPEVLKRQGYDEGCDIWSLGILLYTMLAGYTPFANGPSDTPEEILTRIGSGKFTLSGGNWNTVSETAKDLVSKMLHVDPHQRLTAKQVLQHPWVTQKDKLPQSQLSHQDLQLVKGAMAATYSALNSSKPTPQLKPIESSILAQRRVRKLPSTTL
T2 sequence (O96017 whole entry): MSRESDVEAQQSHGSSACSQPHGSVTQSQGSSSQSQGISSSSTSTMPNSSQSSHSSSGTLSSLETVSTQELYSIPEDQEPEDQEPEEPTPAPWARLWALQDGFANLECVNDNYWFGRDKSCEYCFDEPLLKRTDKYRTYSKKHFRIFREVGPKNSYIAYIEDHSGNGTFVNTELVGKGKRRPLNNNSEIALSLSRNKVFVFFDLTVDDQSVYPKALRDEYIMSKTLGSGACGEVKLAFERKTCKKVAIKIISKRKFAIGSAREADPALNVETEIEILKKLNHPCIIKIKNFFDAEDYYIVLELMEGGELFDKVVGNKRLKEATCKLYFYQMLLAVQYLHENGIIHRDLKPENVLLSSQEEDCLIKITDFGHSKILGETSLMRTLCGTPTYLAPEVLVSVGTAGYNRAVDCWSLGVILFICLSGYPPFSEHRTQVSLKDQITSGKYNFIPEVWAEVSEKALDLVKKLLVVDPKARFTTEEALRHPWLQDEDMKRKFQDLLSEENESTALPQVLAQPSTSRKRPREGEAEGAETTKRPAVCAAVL

Compound: Clc1ccc(-c2cnc3[nH]ccc3c2)cc1 [4j]
- inhibition at 300 µM (RSK1): 91%

Compound: c1ccc(-c2cnc3[nH]ccc3c2)cc1 [4n]
- inhibition at 300 µM (CHK2): 91%
- inhibition at 300 µM (AurA): 99%
- inhibition at 300 µM (INSR): 93%
- inhibition at 300 µM (PKD2): 92%

Compound: c1ccc(-c2ccc3ncccc3c2)cc1 [4o]
- IC50 (ABL [1]): 8.11 µM

Compound: Clc1ccnc2ccc(-c3ccccc3)cc12 [4p]
- IC50 (ABL [2]): 19.2 µM
